Literature values in paper PMC5063953 (Biochemical Pharmacology, 2016).

System: hGIPR
Settings: R5.40A; ref [71]; cited from earlier work

Substance: glucose-dependent insulinotropic peptide (YAEGTFISDYSIAMDKIHQQDFVNWLLAQKGKKNDWKHNITQ; Gastric inhibitory polypeptide; UniProt P09681 52-93, looked up) [GIP]
- Effect compared with WT: cAMP production: Reduced GIP mediated cAMP production.
